Measurements taken from US5047533A, “Acyclic purine phosphonate nucleotide analogs” (SRI International, priority 1990, dated 1991).

Tested on: reverse transcriptase (RT) from Moloney murine leukemia virus (MMLV) or avian myeloblastosis virus (AMV)
Test: Reverse transcriptase assay
Type: biochemical
Settings: 1 mM
Experimental: For the reverse transcriptase assay, cloned reverse transcriptase (RT) (Bethesda Research Laboratories) from Moloney murine leukemia virus (MMLV) or avian myeloblastosis virus (AMV) (Seikagaku or Boehringer Mannheim) was used to direct DNA synthesis from a polyribonucleotide template and a oligodeoxynucleotide primer under reaction conditions (Houts, G. E., et al, J Virol (1979) 29:517.)
Reaction mixtures (100 μl) for the assay of MMLV RT consisted of 50 mM Tris-hydrochloride, pH 8.0, 6 mM MgCl2, 40 mM KCl, 100 μg bovine serum albumin per ml, 1 mM dithiothreitol, 0.1 mM polyadenylic acid (Pharmacia, Inc.), 0.1 mM oligo(dT)12-18 (Pharmacia, Inc.), 0.4 mM deoxythymidine triphosphate (dTTP), and 0.1 mM tritiated (93.5 Cl/mmol) dTTP (New England Nuclear). The compounds assayed were added in various concentrations and dilutions at a volume of 10 μl. Results were confirmed by duplicate assays. Dilutions were made using 10% aqueous DMSO. The total activity was measured by spotting on dry Whatman 3 mm filter disks and radioactivity was determined by liquid scintillation techniques. The assay time course was begun by adding 10 units of RT from MMLV or AMV and incubating the reaction at 37° C. […] Disks were dried under a heat lamp and the acid-insoluble product radioactivity was determined by liquid scintillation counting. […]

`CCOP(=O)(O)CCCOCn1cnc2c(=O)[nH]c(N)nc21` [Compound 2, 9(3'-ethylphosphono-1'-propyloxymethyl)guanine] was tested, and the “inhibition of reverse transcriptase” value was 100%.
